Source: patent US20250304582A1, “Bicyclic Ureas As Kinase Inhibitors” (Incyte Corporation, priority 2024, published 2025)

Columns and labels:
[1] = biological target: T1, catalytic domain (JH1, amino acids 826-1132) of human JAK2 (Homo sapiens, UniProt O60674); experiment: JAK2 LanthaScreen JH1 Binding Assay; settings: 50 nM fluorescent JAK2-JH1 tracer, 2 hours at 25° C.; read-out: JH1 BIND (EX. A)
T1 construct: catalytic domain (JH1, amino acids 826-1132) of human JAK2; FLAG (N); purchased Carna Biosciences 08-445-20N; host or cells: baculovirus expression system
T1 sequence (O60674 826-1132): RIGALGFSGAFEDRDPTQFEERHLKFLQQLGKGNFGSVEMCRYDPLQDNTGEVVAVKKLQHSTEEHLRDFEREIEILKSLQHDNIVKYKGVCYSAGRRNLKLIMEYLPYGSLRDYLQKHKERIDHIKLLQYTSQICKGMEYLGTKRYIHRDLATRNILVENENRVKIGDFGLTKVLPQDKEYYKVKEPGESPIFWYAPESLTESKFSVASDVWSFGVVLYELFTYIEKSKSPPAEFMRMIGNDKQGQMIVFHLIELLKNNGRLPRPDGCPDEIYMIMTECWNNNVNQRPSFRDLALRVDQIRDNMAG
Procedure, shortened: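 FLAG-tagged biotinylated JAK2 JH1 (1.5 nM) was incubated 2 h at 25° C with compound, 50 nM fluorescent tracer and 0.5 nM Streptavidin-Tb in Tris pH 7.5 buffer. Tracer displacement read by TR-FRET; nonspecific binding defined with 2 mM ATP. IC50 from four-parameter fit.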

[2] = biological target: T2, catalytic domain (JH1, amino acids 808-1132) of human JAK2 (Homo sapiens, UniProt O60674); experiment: JAK2 HTRF Enzyme Activity Assay; format: biochemical; settings: ATP (30 μM or 1 mM; not stated which for the table), 60 minutes at 25° C.; read-out: JAK2 HTRF (Ex. D)
T2 construct: catalytic domain (JH1, amino acids 808-1132) of human JAK2; His (N); purchased BPS Bioscience 40450; host or cells: baculovirus expression system
T2 sequence (O60674 808-1132): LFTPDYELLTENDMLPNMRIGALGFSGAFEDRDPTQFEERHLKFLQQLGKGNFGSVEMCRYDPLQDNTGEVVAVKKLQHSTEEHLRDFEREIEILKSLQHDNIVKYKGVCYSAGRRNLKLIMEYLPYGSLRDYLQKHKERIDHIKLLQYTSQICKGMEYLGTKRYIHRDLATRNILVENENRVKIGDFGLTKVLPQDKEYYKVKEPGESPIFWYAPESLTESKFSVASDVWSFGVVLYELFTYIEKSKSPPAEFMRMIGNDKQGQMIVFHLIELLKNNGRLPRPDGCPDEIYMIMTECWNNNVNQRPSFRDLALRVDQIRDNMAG
Procedure, shortened: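 N-terminal His-tagged, baculovirus-expressed JH1 domain (0.015 nM) reacts 60 min at 25 °C with 500 nM biotinylated peptide and 30 μM or 1 mM ATP in Tris pH 7.5/10 mM MgCl2. Phosphorylation is detected by HTRF with Eu-anti-phosphotyrosine (PY20) and streptavidin-APC after EDTA stop. IC50 comes from four-parameter fits.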

[3] = biological target: T3, pseudo-kinase domain (JH2, amino-acids 536-812) of human Wild Type JAK2 (Homo sapiens, UniProt O60674, F794H/W659A/W777A); experiment: JAK2 LanthaScreen JH2-WT Binding Assay; settings: 50 nM Fluorescent JAK2-JH2 Tracer, 1 hour at 25° C.; read-out: JH2 BIND WT (EX. B)
T3 construct: JH2, amino-acids 536-812 with 3 surface mutations W659A, W777A, F794H; His (C); purchased BPS Bioscience 79463; host or cells: baculovirus expression system
T3 sequence (O60674 536-812 W659A/W777A/F794H): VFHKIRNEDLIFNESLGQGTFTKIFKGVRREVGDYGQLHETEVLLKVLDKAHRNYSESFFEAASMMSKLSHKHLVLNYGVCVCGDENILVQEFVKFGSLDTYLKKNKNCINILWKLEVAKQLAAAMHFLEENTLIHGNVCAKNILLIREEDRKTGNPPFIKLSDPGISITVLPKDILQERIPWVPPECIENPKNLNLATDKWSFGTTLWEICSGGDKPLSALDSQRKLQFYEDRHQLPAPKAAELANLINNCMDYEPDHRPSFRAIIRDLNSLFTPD
Procedure, shortened: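 JH2 domain (0.145 nM; His-Avi-tagged, biotinylated, baculovirus-expressed) incubated 1 h at 25° C. with compounds, 50 nM fluorescent JH2 tracer and 0.25 nM streptavidin-Tb in pH 7.5 Tris buffer with MgCl2, EGTA, DTT. Non-specific binding defined with 2 mM ATP. TR-FRET tracer displacement read; IC50 from four-parameter fit.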

[4] = biological target: T4, pseudo-kinase domain (JH2, amino-acids 536-812) of human V617F mutant JAK2 (Homo sapiens, UniProt O60674, F794H/V617F/W659A/W777A); experiment: JAK2 LanthaScreen JH2-V617F Binding Assay; settings: 50 nM Fluorescent JAK2-JH2 Tracer, 1 hour at 25° C.; read-out: JH2 BIND V617F (Ex. C)
T4 construct: JH2, amino-acids 536-812 with 3 surface mutations W659A, W777A, F794H; His (C); purchased BPS Bioscience 79498; host or cells: baculovirus expression system
T4 sequence (O60674 536-812 V617F/W659A/W777A/F794H): as the sequence (O60674 536-812 W659A/W777A/F794H) above, with V82F counted along it
Procedure, shortened: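 Biotinylated His-Avi-tagged JH2 construct (536-812, W659A/W777A/F794H) at 0.26 nM, with 50 nM fluorescent JH2 tracer and 0.25 nM streptavidin-Tb, in pH 7.5 Tris/MgCl2 buffer; 1 h at 25° C. Non-specific binding defined with 2 mM ATP. IC50 derived from TR-FRET signal by four-parameter dose-response fit.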

Structure (SMILES) | IC50 [1] | IC50 [2] | IC50 [3] | IC50 [4]
[2H]C([2H])([2H])n1c(=O)n([C@@H]2CC[C@@H](NC(=O)OC)C2)c2cc(Nc3ccc4ncc(C(F)(F)F)n4n3)ncc21 [Example 31, Methyl ((1R,3R)-3-(3-(methyl-d3)-2-oxo-6-((3-(trifluoromethyl)imidazo[1,2-b]pyridazin-6-yl)amino)-2,3-dihydro-1H-imidazo[4,5-c]pyridin-1-yl)cyclopentyl)carbamate] | > 1000 nM | > 1000 nM | ≤ 10 nM | ≤ 10 nM
[2H]C([2H])([2H])n1c(=O)n([C@@H]2CC[C@@H](NC(=O)OC)C2)c2cc(Nc3cc(C(=O)N(C)C(C)C)c4cccc(C(F)(F)F)c4n3)ncc21 [Example 10, Methyl ((1R,3R)-3-(6-((4-(isopropyl(methyl)carbamoyl)-8-(trifluoromethyl)quinolin-2-yl)amino)-3-(methyl-d3)-2-oxo-2,3-dihydro-1H-imidazo[4,5-c]pyridin-1-yl)cyclopentyl)carbamate] | > 1000 nM | > 1000 nM | ≤ 10 nM | ≤ 10 nM
[2H]C([2H])([2H])n1c(=O)n([C@@H]2CC[C@@H](NC(=O)OC)C2)c2cc(Nc3cnc4cccc(C#N)c4n3)ncc21 [Example 37, Methyl ((1R,3R)-3-(6-((8-cyanoquinoxalin-2-yl)amino)-3-(methyl-d3)-2-oxo-2,3-dihydro-1H-imidazo[4,5-c]pyridin-1-yl)cyclopentyl)carbamate] | 100 to 500 nM | 100 to 500 nM | ≤ 10 nM | 10 to 100 nM
